test system: not given; conditions: subchronic; duration: 90 days

Structure (SMILES)	NOAEL [mg/kg-day]
C1CCC(SSC2CCCCC2)CC1 [Dicyclohexyl disulfide]	0.23

test system: Rattus norvegicus; conditions: chronic; duration: 2 years

Structure (SMILES)	NOEL [mg/kg-day]
SCS [Methanedithiol]	15
C=O [Formaldehyde]	15

same assay, conditions: chronic; duration: 91 days

Structure (SMILES)	NOEL [mg/kg-day]
CCC1SSC(CC)S1 (stereo not drawn) [3,5-Diethyl-1,2,4-trithiolane]	1.9
CC1SSC(C)S1 (stereo not drawn) [3,5-Dimethyl-1,2,4-trithiolane]	1.9

same assay, conditions: short-term; duration: 28 days

Structure (SMILES)	NOEL [mg/kg-day]
CC=O [Acetaldehyde]	125
C=CCSC[C@H](N)C(=O)O [S-Allylcysteine]	250
CC(S)S [Ethane-1,1-dithiol]	125

same assay, conditions: subchronic; duration: 90 days

Structure (SMILES)	NOEL [mg/kg-day]
COc1ccccc1S [Benzenethiol, 2-methoxy-]	0.51
CSCS [Methylthiomethylmercaptan]	0.3
C=CCSSCCC [Allyl propyl disulfide]	4.6
Cc1cccc(C)c1S [Benzenethiol, 2,6-dimethyl-]	0.43
Cc1ccccc1S [2-Methylbenzenethiol]	0.51
CC(S)c1ccccc1 (stereo not drawn) [Benzenemethanethiol, .alpha.-methyl-]	0.43
C=CCSSSCC=C [Diallyl trisulfide]	4.6
CC1SCCSS1 (stereo not drawn) [1,2,4-Trithiane, 3-methyl-]	0.3

same assay, conditions: subchronic; duration: 90 days; oral

Structure (SMILES)	NOEL [mg/kg-day]
CCC(S)SC(S)CC (stereo not drawn) [1,1'-Sulfanediyldi(propane-1-thiol)]	0.7
CC(S)C(C)S (stereo not drawn) [2,3-Butanedithiol]	0.7
